Measurements from PubChem BioAssay AID1259411 (Chemical Carcinogenesis Research Information System (CCRIS), 2018).
Active and inactive are the calls of the source. No rule for the calls is given here.

Tested on: rodent carcinogenicity bioassays, tumor incidence
Experiment: CCRIS carcinogenicity studies
How it was run: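 Archive of carcinogenicity, mutagenicity, tumor promotion and tumor inhibition results drawn from journals, NCI reports and other sources, expert-reviewed; covers 1985-2011 and is no longer updated.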

CCCN(C)N=O
carcinogen call (Species: HAMSTER, Strain/Sex: SYRIAN/FEMALE, Route: GAVAGE, Dose: 0, 2.1 MG/KG 1/WK FOR 23-30 WK (TOTAL DOSE: 0; 0.6 MMOL) (STUDY DURATION: LIFETIME), Dose: 0, 2.1 MG/KG 1/WK FOR 23-30 WK (TOTAL DOSE: 0; 0.6 MMOL) (STUDY DURATION: LIFETIME), Tumor Site: Type of Lesion: LIVER: HEPATOCELLULAR ADENOMA, HEMANGIOSARCOMA, NASAL MUCOSA: CARCINOMA): active; positive
carcinogen call (Species: HAMSTER, Strain/Sex: SYRIAN/MALE,FEMALE, Route: SUBCUTANEOUS, Dose: 12.5, 25, 50 MG/KG 1/WK, Dose: 12.5, 25, 50 MG/KG 1/WK, Tumor Site: Type of Lesion: NASAL CAVITY: CARCINOMA, EPIDERMOID TUMOR, MUCOEPIDERMOID TUMOR, TRACHEA: PAPILLARY POLYP, LUNG: ADENOMA, CARCINOMA, LIV, Tumor Site: Type of Lesion: NASAL CAVITY: CARCINOMA, EPIDERMOID TUMOR, MUCOEPIDERMOID TUMOR, TRACHEA: PAPILLARY POLYP, LUNG: ADENOMA, CARCINOMA, LIV): active; positive
carcinogen call (Species: HAMSTER, Strain/Sex: SYRIAN/MALE, Route: GAVAGE, Dose: 0, 2.1 MG/KG 1/WK FOR 23-30 WK (TOTAL DOSE: 0; 0.6 MMOL) (STUDY DURATION: LIFETIME), Dose: 0, 2.1 MG/KG 1/WK FOR 23-30 WK (TOTAL DOSE: 0; 0.6 MMOL) (STUDY DURATION: LIFETIME), Tumor Site: Type of Lesion: LIVER: HEPATOCELLULAR ADENOMA, HEMANGIOSARCOMA, LUNG: ALVEOLAR/BRONCHIAL ADENOMA, NASAL MUCOSA: CARCINOMA, Tumor Site: Type of Lesion: LIVER: HEPATOCELLULAR ADENOMA, HEMANGIOSARCOMA, LUNG: ALVEOLAR/BRONCHIAL ADENOMA, NASAL MUCOSA: CARCINOMA): active; positive
carcinogen call (Species: MOUSE, Strain/Sex: NMRI/FEMALE, Route: SUBCUTANEOUS, Dose: 0.05, 0.1, 0.2 OF LD50 (77.1 MG/KG) 1/WK FOR LIFE, Dose: 0.05, 0.1, 0.2 OF LD50 (77.1 MG/KG) 1/WK FOR LIFE, Tumor Site: Type of Lesion: NASAL CAVITY: SQUAMOUS CELL PAPILLOMA, SQUAMOUS CELL CARCINOMA, LARYNX: PAPILLOMA, CARCINOMA (IN SITU), SQUAMOUS CELL CA): active; positive

P
carcinogen call (Species: RAT, Strain/Sex: F344/FEMALE, Route: INHALATION, Dose: 0, 0.3, 1.0, 3.0 PPM 6 HR/D 5 D/WK FOR 104 WK (STUDY DURATION: 104 WK), Dose: 0, 0.3, 1.0, 3.0 PPM 6 HR/D 5 D/WK FOR 104 WK (STUDY DURATION: 104 WK)): inactive; negative
carcinogen call (Species: RAT, Strain/Sex: F344/MALE, Route: INHALATION, Dose: 0, 0.3, 1.0, 3.0 PPM 6 HR/D 5 D/WK FOR 104 WK (STUDY DURATION: 104 WK), Dose: 0, 0.3, 1.0, 3.0 PPM 6 HR/D 5 D/WK FOR 104 WK (STUDY DURATION: 104 WK)): inactive; negative

COC(=O)C1=CCCN(C)C1
carcinogen call (Species: MOUSE, Strain/Sex: SWISS/FEMALE, Route: GAVAGE, Dose: 0, 1 MG/D 5 D/WK FOR LIFE (STUDY DURATION: LIFE)): inactive; negative
carcinogen call (Species: MOUSE, Strain/Sex: SWISS/MALE, Route: GAVAGE, Dose: 0, 1 MG/D 5 D/WK FOR LIFE (STUDY DURATION: LIFE), Tumor Site: Type of Lesion: LIVER: HEMANGIOMA, LUNG: ADENOCARCINOMA, STOMACH: SQUAMOUS CELL CARCINOMA, Tumor Site: Type of Lesion: LIVER: HEMANGIOMA, LUNG: ADENOCARCINOMA, STOMACH: SQUAMOUS CELL CARCINOMA): active; positive

[Cl][Sn][Cl]
carcinogen call (Species: MOUSE, Strain/Sex: B6C3F1/FEMALE, Route: ORAL, Dose: 0, 1000, 2000 PPM IN DIET FOR 105 WK (STUDY DURATION: 105 WK), Dose: 0, 1000, 2000 PPM IN DIET FOR 105 WK (STUDY DURATION: 105 WK)): inactive; negative
carcinogen call (Species: MOUSE, Strain/Sex: B6C3F1/MALE, Route: ORAL, Dose: 0, 1000, 2000 PPM IN DIET FOR 105 WK (STUDY DURATION: 105 WK), Dose: 0, 1000, 2000 PPM IN DIET FOR 105 WK (STUDY DURATION: 105 WK)): inactive; negative
carcinogen call (Species: RAT, Strain/Sex: F344/FEMALE, Route: ORAL, Dose: 0, 1000, 2000 PPM IN DIET FOR 105 WK (STUDY DURATION: 105 WK), Dose: 0, 1000, 2000 PPM IN DIET FOR 105 WK (STUDY DURATION: 105 WK)): inactive; negative
carcinogen call (Species: RAT, Strain/Sex: F344/MALE, Route: ORAL, Dose: 0, 1000, 2000 PPM IN DIET FOR 105 WK (STUDY DURATION: 105 WK), Dose: 0, 1000, 2000 PPM IN DIET FOR 105 WK (STUDY DURATION: 105 WK), Tumor Site: Type of Lesion: THYROID GLAND: C-CELL ADENOMA, C-CELL ADENOMA OR CARCINOMA): equivocal

C/C=C/c1cc(OC)c(OC)cc1OC
carcinogen call (Species: MOUSE, Strain/Sex: B6C3F1/MALE, Route: INTRAPERITONEAL, Dose: 0, 0.25, 0.5 UMOL/G BW ONCE (STUDY DURATION: 10-11 MONTHS), Dose: 0, 0.25, 0.5 UMOL/G BW ONCE (STUDY DURATION: 10-11 MONTHS), Tumor Site: Type of Lesion: LIVER: HEPATOMA): active; positive
carcinogen call (Species: MOUSE, Strain/Sex: CD-1/FEMALE, Route: DERMAL, Dose: 0, 5 UMOL 1X/WK FOR 3 WK BEGINNING 24 HR POST FIRST TPA DOSE (2.5 UG IN 0.1 ML ACETONE), FOLLOWED BY 2.5 UG TPA IN 0.1 M): inactive; negative

NC(=O)N(CCO)N=O
carcinogen call (Species: HAMSTER, Strain/Sex: SYRIAN/FEMALE, Route: GAVAGE, Dose: 0, 14 MG/ML ((0.2 ML OF A SOLUTION IN ETHYL ACETATE/CORN OIL (1:2)) 1/WK FOR 22 WK (STUDY DURATION: LIFE SPAN), Tumor Site: Type of Lesion: LIVER: HEMANGIOSARCOMA, SPLEEN: HEMANGIOSARCOMA): active; positive
carcinogen call (Species: HAMSTER, Strain/Sex: SYRIAN/MALE, Route: GAVAGE, Dose: 0, 14 MG/ML ((0.2 ML OF A SOLUTION IN ETHYL ACETATE/CORN OIL (1:2)) 1/WK FOR 22 WK (STUDY DURATION: 20 WK), Tumor Site: Type of Lesion: LIVER: HEMANGIOSARCOMA, PANCREAS: CARCINOMA OR ADENOMA, SPLEEN: HEMANGIOSARCOMA, FORESTOMACH: SQUAMOUS CELL CARCINOMA OR, Tumor Site: Type of Lesion: LIVER: HEMANGIOSARCOMA, PANCREAS: CARCINOMA OR ADENOMA, SPLEEN: HEMANGIOSARCOMA, FORESTOMACH: SQUAMOUS CELL CARCINOMA OR): active; positive
carcinogen call (Species: RAT, Strain/Sex: F344/MALE, Route: GAVAGE, Dose: 0, 2.4 MG IN 0.2 ML ETHYL ACETATE/CORN OIL (1:1) 2/WK FOR 30 WK (TOTAL DOSE: 168 MG) (STUDY DURATION: 80 WK), Tumor Site: Type of Lesion: LUNG: CARCINOMA OR ADENOMA, THYROID: CARCINOMA OR ADENOMA): active; positive

Nc1ncc([N+](=O)[O-])s1
carcinogen call (Species: MOUSE, Strain/Sex: B6C3F1/FEMALE, Route: ORAL, Dose: 0, 50, 100 PPM IN DIET, Dose: 0, 50, 100 PPM IN DIET): inactive; negative
carcinogen call (Species: MOUSE, Strain/Sex: B6C3F1/MALE, Route: ORAL, Dose: 0, 50, 100 PPM IN DIET, Dose: 0, 50, 100 PPM IN DIET): inactive; negative
carcinogen call (Species: RAT, Strain/Sex: F344/FEMALE, Route: ORAL, Dose: 0, 300, 600 PPM IN DIET, Dose: 0, 300, 600 PPM IN DIET): inactive; negative

CC(C)(Oc1ccc(C2CC2(Cl)Cl)cc1)C(=O)O (stereo unspecified)
carcinogen call (Species: RAT, Strain/Sex: F344/MALE, Route: ORAL, Dose: 10 MG/KG IN DIET FOR 60 WK, Tumor Site: Type of Lesion: LIVER: HEPATOCELLULAR CARCINOMA): active; positive
